Results: patent US11072624B2, “Synthesis of nucleoside 5′-triphosphates and their derivatives” (priority 2010, dated 2021)

Biological target: T1, Klenow fragment exo(−), Kf- (Escherichia coli, UniProt P00582, D355A/E357A)
T1 construct: into DNA by Klenow fragment exo(−), Kf-
Test: Primer extension reaction of chemically synthesized dNTPs into DNA by Klenow polymerase
Type: biochemical
Settings: single test dNTP plus the three other standard dNTPs (lanes 4, 6, 8, 10); 0.1 mM dNTPs, 37° C., 1 h, 19% PAGE
Experimental: Primer, P was end labeled using polynucleotide kinase and [γ-^32P] ATP. Polymerization reactions were performed with 3.5 μM primer and 5 μM template and equimolar ratios of all dNTPs (0.1 mM) and incubated with 0.05 […] at 37° C. for 1 h. Reaction was analyzed by 19% polyacrylamide gel electrophoresis. Lane 1: primer, P and all dNTPs but no Kf-; lane 2: P plus template, T and all dNTPs (Epicentre, Inc.) with Kf-; lane 3: P/T and all dNTPs except dATP with Kf-; lane 4: P/T and test dATP, dCTP, dGTP, and TTP with Kf-; lane 5: P/T and all dNTPs except dCTP with Kf-; lane 6: P/T and dATP, test dCTP, dGTP and TTP with Kf-; lane 7: P/T and all dNTPs except dGTP with Kf-; lane 8: P/T and dATP, dCTP, test dGTP and TTP with Kf-; lane 9: P/T and all dNTPs except TTP with Kf-; lane 10: P/T and dATP, dCTP, dGTP and test TTP with Kf-; lane 11: P/T and all test dNTPs with Kf-; lane 12: primer, P.
For the polymerase extension reaction, the primer (SEQ ID NO: 1; P: 5′-d-GCGTAATACGACTCACTATAG-3′) was radiolabeled with [γ-^32P] ATP at the 5′-position and incubated with the template (SEQ ID NO: 2; 3′-d-[…]-5′) to allow examination of a test nucleotide (dATP, dCTP, dGTP or TTP), see FIG. 3. The polymerase reaction was conducted in the presence of the Klenow polymerase (0.05 U/μL). […] More convincingly, in a reaction containing each of the test triphosphates (lane 11), full-length product (SEQ ID NO: 3) similar to the standard polymerization reaction (lane 2) was observed.

T1 sequence (P00582 324-928 D355A/E357A): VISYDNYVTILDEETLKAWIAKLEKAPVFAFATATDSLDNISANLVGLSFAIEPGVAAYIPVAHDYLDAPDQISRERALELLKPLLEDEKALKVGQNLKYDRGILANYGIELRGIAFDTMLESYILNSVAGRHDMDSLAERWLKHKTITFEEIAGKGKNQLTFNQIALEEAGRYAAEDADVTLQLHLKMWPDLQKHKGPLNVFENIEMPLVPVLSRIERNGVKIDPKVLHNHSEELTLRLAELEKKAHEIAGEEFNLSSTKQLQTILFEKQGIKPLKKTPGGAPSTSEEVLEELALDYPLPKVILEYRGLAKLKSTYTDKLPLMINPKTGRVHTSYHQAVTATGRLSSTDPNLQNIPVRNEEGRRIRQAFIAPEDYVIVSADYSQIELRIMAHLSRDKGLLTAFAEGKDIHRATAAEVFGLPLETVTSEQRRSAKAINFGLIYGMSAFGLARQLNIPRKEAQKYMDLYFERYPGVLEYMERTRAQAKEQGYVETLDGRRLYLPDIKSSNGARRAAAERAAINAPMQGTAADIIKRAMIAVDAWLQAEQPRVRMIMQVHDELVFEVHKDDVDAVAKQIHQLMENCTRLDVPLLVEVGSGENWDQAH

Structure (SMILES)	primer extension to the expected full-length (test dNTP as substrate for the Klenow polymerase)
Nc1nc2c(ncn2[C@H]2C[C@H](O)[C@@H](COP(=O)(O)OP(=O)(O)OP(=O)(O)O)O2)c(=O)[nH]1 [dGTP]	efficiently extended the primer
Cc1cn([C@H]2C[C@H](O)[C@@H](COP(=O)(O)OP(=O)(O)OP(=O)(O)O)O2)c(=O)[nH]c1=O [TTP]	efficiently extended the primer
Nc1ccn([C@H]2C[C@H](O)[C@@H](COP(=O)(O)OP(=O)(O)OP(=O)(O)O)O2)c(=O)n1 [dCTP]	efficiently extended the primer
Nc1ncnc2c1ncn2[C@H]1C[C@H](O)[C@@H](COP(=O)(O)OP(=O)(O)OP(=O)(O)O)O1 [dATP]	efficiently extended the primer
